Here are results for 56 molecules from ChEMBL document CHEMBL5052821, “Galactokinase inhibitors for the treatment and prevention of associated diseases and disorders” (2019).

Calls of active or inactive are those of the source. How the calls were made is not given here.

The first series concerns Bacteria. In words: Inhibition of bacterial CDP-ME kinase assessed as ATP depletion up to 57 uM measured by bioluminescent kinase Glo assay. Particulars: dose microM <=57.
For the molecule `Cn1c(NC2=NC3(CCCC3)C3=C(CCCC3=O)N2)nc2ccccc21`, the inhibition result was “inactive”. On the same count and under the same terms, then `Cc1ccc(C2N=C(Nc3nc4ccccc4o3)NC3=C2C(=O)CCC3)s1` (configuration not stated), with “inactive”. Still for that read-out and setting: then `CC1=C(C(=O)Nc2nncs2)C2(CCCC2)N=C(Nc2nc3ccccc3o2)N1`, with “inactive”. The same measure, in the same setting: then `O=C1CCCC2=C1C(c1ncccc1C(F)(F)F)N=C(Nc1nc3ccccc3o1)N2` (configuration not stated), with “inactive”; and `O=C1CCCC2=C1C1(CCC1)N=C(Nc1nc3ccccc3o1)N2`, with “inactive”.

In the case of `CC1=C(C(=O)Nc2ccon2)C2(CCCC2)N=C(Nc2nc3ccccc3o2)N1`, the inhibition result is “inactive”. Still for that read-out and setting: then `CC1=C(C(=O)NC2CC2)C(c2n[nH]cc2Cl)N=C(Nc2nc3ccccc3o2)N1` (configuration not stated), with “inactive”; and `COc1ccccc1C1N=C(Nc2nc3ccccc3o2)NC2=C1C(=O)CCC2` (configuration not stated), with “inactive”.

As for `O=C1CCCC2=C1C(c1cccnc1Cl)N=C(Nc1nc3ccccc3o1)N2` (configuration not stated), the inhibition entry was “inactive”. Still for that read-out and setting: in the case of `CC1=C(C(=O)Nc2nnc(-c3ccccc3)s2)C(c2n[nH]cc2Cl)N=C(Nc2nc3ccccc3o2)N1` (configuration not stated) it was “inactive”. On the same count and under the same terms, in the case of `Cc1ccsc1C1N=C(Nc2nc3ccccc3o2)NC2=C1C(=O)CCC2` (configuration not stated) it was “inactive”. Consider `O=C1CCCC2=C1C1(CCCC1)N=C(Nc1nc3ccccc3n1Cc1ccccc1)N2`, for which the inhibition entry was “inactive”. Same read-out and setting: then `O=C1CCCC2=C1C(c1ccc(Cl)cc1)N=C(Nc1nc3ccccc3o1)N2` (configuration not stated), with “inactive”. Still for that read-out and setting: then `CC1=C(C(=O)Nc2ccon2)C(c2nn(C)cc2Cl)N=C(Nc2nc3ccccc3o2)N1` (configuration not stated), with “inactive”. Same read-out and setting: in the case of `O=C1CCCC2=C1C(c1c(Cl)cccc1Cl)N=C(Nc1nc3ccccc3o1)N2` (configuration not stated) it was “inactive”; in that of `O=C1CCCC2=C1C1(CCCC1)N=C(Nc1nc3cc4ccccc4cc3o1)N2`, “inactive”. For the molecule `O=C1CCCC2=C1C(c1cccc(F)c1)N=C(Nc1nc3ccccc3o1)N2` (configuration not stated), the inhibition entry was “inactive”. As for `O=C1CCCC2=C1C1(CCSC1)N=C(Nc1nc3ccccc3o1)N2` (configuration not stated), the inhibition result is “inactive”.

As to `O=C1CCCC2=C1C(c1ccccc1)N=C(Nc1nc3ccccc3o1)N2` (configuration not stated), the inhibition entry was “inactive”. On the same count and under the same terms, in the case of `CC1(C)N=C(Nc2nc3ccccc3o2)NC2=C1C(=O)CCC2` it was “inactive”; in that of `O=C1CCCC2=C1C(c1ccncc1Cl)N=C(Nc1nc3ccccc3o1)N2` (configuration not stated), “inactive”. `Cn1cc(Br)c(C2N=C(Nc3nc4ccccc4o3)NC3=C2C(=O)CCC3)n1` (configuration not stated): the inhibition entry was “inactive”. In the case of `O=C1CC(c2ccccc2)CC2=C1C1(CCCCC1)N=C(Nc1nc3ccccc3o1)N2` (configuration not stated), the inhibition entry is “inactive”. Same read-out and setting: in the case of `O=C1CCCC2=C1C(c1cnccc1C(F)(F)F)N=C(Nc1nc3ccccc3o1)N2` (configuration not stated) it was “inactive”. Regarding `CC1=C(C(=O)N(C)c2ccccc2C)C(c2ccccc2Br)N=C(Nc2nc3ccccc3o2)N1` (configuration not stated), the inhibition result was “inactive”. As to `CC1=C(C(=O)NC2CCCCC2)C(c2ccccc2Br)N=C(Nc2nc3ccccc3o2)N1` (configuration not stated), the inhibition result was “inactive”.

Turning to `Cc1ccc2oc(NC3=NC4(CCCC4)C4=C(CCCC4=O)N3)nc2c1`, the inhibition result was “inactive”. Take `O=C1CCCC2=C1C(c1cccnc1)N=C(Nc1nc3ccccc3o1)N2` (configuration not stated): the inhibition entry was “inactive”.

In the case of `Cc1ccc2nc(NC3=NC4(CCCC4)C4=C(CCCC4=O)N3)oc2c1`, the inhibition result was “inactive”. As for `Cc1ccc(C2N=C(Nc3nc4ccccc4o3)NC3=C2C(=O)CCC3)cc1` (configuration not stated), the inhibition entry was “inactive”. The same measure, in the same setting: in the case of `O=C1CCCC2=C1C(c1cccc(Cl)c1)N=C(Nc1nc3ccccc3o1)N2` (configuration not stated) it was “inactive”; in that of `CNC(=O)C1=C(C)NC(Nc2nc3ccccc3o2)=NC12CCCC2`, “inactive”; in that of `O=C1CCCC2=C1C1(CCCC1)N=C(Nc1nc3cc(Cl)ccc3o1)N2`, “inactive”.

Regarding `O=C1CCCC2=C1C(c1cccc(C(F)(F)F)c1)N=C(Nc1nc3ccccc3o1)N2` (configuration not stated), the inhibition entry was “inactive”. `COc1ccc(C2N=C(Nc3nc4ccccc4o3)NC3=C2C(=O)CCC3)cc1` (configuration not stated): the inhibition result was “inactive”. Still for that read-out and setting: in the case of `O=C1CCC2=C1C(c1ccccc1Cl)N=C(Nc1nc3ccccc3o1)N2` (configuration not stated) it was “inactive”; in that of `CC1=C(C(=O)Nc2nncs2)C(c2nn(C)cc2Cl)N=C(Nc2nc3ccccc3o2)N1` (configuration not stated), “inactive”; in that of `CC1(C)CC(=O)C2=C(C1)NC(Nc1nc3ccccc3o1)=NC21CCCCC1`, “inactive”. Still for that read-out and setting: then `CC1=C(C(=O)Nc2ccc(C)cc2)C(c2ccccc2Br)N=C(Nc2nc3ccccc3o2)N1` (configuration not stated), with “inactive”; and `O=C1CCCC2=C1[C@@]1(CCC(c3ccccc3)C1)N=C(Nc1nc3ccccc3o1)N2` (some centres not stated), with “inactive”. Regarding `CC1(C)CC(=O)C2=C(C1)NC(Nc1nc3ccccc3o1)=NC21CCCC1`, the inhibition result is “inactive”. The same measure, in the same setting: then `CC1=C(C(=O)Nc2noc3ccccc23)C(c2nn(C)cc2Cl)N=C(Nc2nc3ccccc3o2)N1` (configuration not stated), with “inactive”. On the same count and under the same terms, in the case of `O=C1CCC2=C1C1(CCCC1)N=C(Nc1nc3ccccc3o1)N2` it was “inactive”.

Turning to `CC1=C(C(=O)Nc2nc3ccccc3s2)C(c2nn(C)cc2Cl)N=C(Nc2nc3ccccc3o2)N1` (configuration not stated), the inhibition entry is “inactive”.

Turning to `O=C1CCCC2=C1C(c1ccccc1Cl)N=C(Nc1nc3ccccc3o1)N2` (configuration not stated), the inhibition entry is “inactive”. Still for that read-out and setting: then `O=C1CCCC2=C1C1(CCSCC1)N=C(Nc1nc3ccccc3o1)N2`, with “inactive”.

On to `CC1=C(C(=O)Nc2nc3ccccc3s2)C(c2n[nH]cc2Cl)N=C(Nc2nc3ccccc3o2)N1` (configuration not stated), for which the inhibition result was “inactive”. On the same count and under the same terms, in the case of `CC1=C(C(=O)Nc2ccc(Cl)cc2)C(c2ccccc2Br)N=C(Nc2nc3ccccc3o2)N1` (configuration not stated) it was “inactive”; in that of `O=C1CCCC2=C1C1(CCCC1)N=C(Nc1nc3cc(Br)ccc3o1)N2`, “inactive”; in that of `O=C1CCCC2=C1C(c1ccccc1Br)N=C(Nc1nc3ccccc3o1)N2` (configuration not stated), “inactive”.

On to `O=C1CCCC2=C1C(c1ccc(F)cc1)N=C(Nc1nc3ccccc3o1)N2` (configuration not stated), for which the inhibition result was “inactive”.

Consider `O=C1CCCC2=C1C1(CCCC1)N=C(Nc1nc3ccccc3o1)N2`, for which the inhibition entry was “inactive”. The same measure, in the same setting: then `CN(C)c1ccc(C2N=C(Nc3nc4ccccc4o3)NC3=C2C(=O)CCC3)cc1` (configuration not stated), with “inactive”; and `O=C1CCCC2=C1C(c1n[nH]cc1Br)N=C(Nc1nc3ccccc3o1)N2` (configuration not stated), with “inactive”; and `COc1cccc(C2N=C(Nc3nc4ccccc4o3)NC3=C2C(=O)CCC3)c1` (configuration not stated), with “inactive”. On the same count and under the same terms, in the case of `O=C1CCCC2=C1C1(CCOCC1)N=C(Nc1nc3ccccc3o1)N2` it was “inactive”.

The subject of the next series is HEK293. The series can be described thus: Cytotoxicity against human HEK293 cells measured after 48 hrs by Cell Titer Glo assay. The format is toxicity, cell-based. Particulars: hek293, 48 h.
For the molecule `Cn1c(NC2=NC3(CCCC3)C3=C(CCCC3=O)N2)nc2ccccc21`, the Activity entry is on record as “Non-Toxic”.

Turning to `O=C1CCCC2=C1C1(CCC1)N=C(Nc1nc3ccccc3o1)N2`, the Activity entry was “Non-Toxic”.

In the case of `O=C1CCCC2=C1C1(CCCC1)N=C(Nc1nc3cc4ccccc4cc3o1)N2`, the Activity result was “Non-Toxic”.

For `O=C1CC(c2ccccc2)CC2=C1C1(CCCCC1)N=C(Nc1nc3ccccc3o1)N2` (configuration not stated), the Activity entry was “Non-Toxic”. For the molecule `Cc1ccc2oc(NC3=NC4(CCCC4)C4=C(CCCC4=O)N3)nc2c1`, the Activity entry is “Non-Toxic”. Regarding `Cc1ccc2nc(NC3=NC4(CCCC4)C4=C(CCCC4=O)N3)oc2c1`, the Activity result is “Non-Toxic”. Turning to `O=C1CCCC2=C1C1(CCCC1)N=C(Nc1nc3cc(Cl)ccc3o1)N2`, the Activity entry is on record as “Non-Toxic”.

As for `CC1(C)CC(=O)C2=C(C1)NC(Nc1nc3ccccc3o1)=NC21CCCC1`, the Activity result was “Non-Toxic”. The same measure, in the same setting: then `O=C1CCC2=C1C1(CCCC1)N=C(Nc1nc3ccccc3o1)N2`, with “Non-Toxic”.

`O=C1CCCC2=C1C1(CCCC1)N=C(Nc1nc3cc(Br)ccc3o1)N2`: the Activity result is reported as “Non-Toxic”. On the same count and under the same terms, then `O=C1CCCC2=C1C1(CCCC1)N=C(Nc1nc3ccccc3o1)N2`, with “Non-Toxic”.
